IC50 data for 26 compounds are collected here from US9102678B2, “Compounds and methods for inhibiting mitotic progression” (Millennium Pharmaceuticals, Inc., priority 2004, dated 2015).

T1 sequence (P97477 whole entry): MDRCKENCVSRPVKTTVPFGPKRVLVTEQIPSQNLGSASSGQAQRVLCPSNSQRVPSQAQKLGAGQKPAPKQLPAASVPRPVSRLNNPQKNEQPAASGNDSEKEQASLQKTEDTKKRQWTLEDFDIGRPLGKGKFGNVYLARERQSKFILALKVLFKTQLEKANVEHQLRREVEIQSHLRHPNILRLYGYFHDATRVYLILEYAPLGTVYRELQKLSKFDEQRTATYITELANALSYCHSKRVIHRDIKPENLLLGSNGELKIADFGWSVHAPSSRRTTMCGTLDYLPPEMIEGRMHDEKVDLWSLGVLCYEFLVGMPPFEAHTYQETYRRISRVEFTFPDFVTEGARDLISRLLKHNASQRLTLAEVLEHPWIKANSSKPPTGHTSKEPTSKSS

This test has as its target T1, recombinant murine Aurora A enzyme (Mus musculus, UniProt P97477).
T1 construct: hexahistidine (His6) (N); made in house; host or cells: insect cells, baculovirus (Bac-to-Bac, Invitrogen)
The test is described as follows: Aurora A DELFIA Kinase Assay. The format is biochemical. The following applies: mouse Aurora A, 250 μM ATP; threshold less than or equal to 100 nM; read-out: IC50. From the text: Recombinant mouse Aurora A with an amino-terminus hexahistidine tag (His-Aurora A) was expressed using a standard baculovirus vector and insect cell expression system (Bac-to-Bac®, Invitrogen).
Soluble, recombinant mouse Aurora A was purified from insect cells using Ni-NTA agarose (Qiagen) as described by the manufacturer and further purified over an S75 size exclusion column (Amersham Pharmacia Biotech).
Aurora A DELFIA® Kinase Assay
The enzymatic reaction mixture, with and without Aurora inhibitors, was incubated for 15 minutes at room temperature before termination with 100 μL of stop buffer (1% BSA, 0.05% Surfact-AMPS-20, and 100 mM EDTA). A total of 100 μL of the enzyme reaction mixture was transferred to wells of a Neutravidin-coated 96-well plate (Pierce) and incubated at room temperature for 30 minutes. The wells were washed with wash buffer (25 mM Tris, 150 mM sodium chloride, and 0.1% Tween 20) and incubated for 1 hour with 100 μL of antibody reaction mixture containing 1% BSA, 0.05% Surfact-AMPS-20, anti-phospho-PKA rabbit polyclonal antibody (1:2000, New England Biolabs), and europium labeled anti-rabbit IgG (1:2000, Perkin Elmer). The wells were washed and then the bound europium was liberated using 100 μL of Enhancement Solution (Perkin Elmer). Quantification of europium was done using a Wallac™ EnVision (Perkin Elmer).
In the case of `COC(=O)C1(N)CCN(C(=O)c2ccc(Nc3ncc4c(n3)-c3ccc(Cl)cc3C(c3c(F)cccc3F)=NC4)cc2)CC1` [Compound I-294, methyl 4-amino-1-(4-{[9-chloro-7-(2,6-difluorophenyl)-5H-pyrimido[5,4-d][2]benzazepin-2-yl]amino}benzoyl)piperidine-4-carboxylate], the IC50 is no more than 100 nM.

On to `NC1CCN(C(=O)c2ccc(Nc3ncc4c(n3)-c3ccc(Cl)cc3C(c3ccccn3)=NC4)cc2)C1` (centres unmarked) [Compound I-299, N-{4-[(3-aminopyrrolidin-1-yl)carbonyl]phenyl}-9-chloro-7-pyridin-2-yl-5H-pyrimido[5,4-d][2]benzazepin-2-amine], for which the IC50 is no more than 100 nM.

As to `COc1ccccc1C1=NCc2cnc(Nc3ccc(C(=O)N4CCNC(C)C4)cc3)nc2-c2ccc(Cl)cc21` (centres unmarked) [Compound I-329, 9-chloro-7-(2-methoxyphenyl)-N-{4-[(3-methylpiperazin-1-yl)carbonyl]phenyl}-5H-pyrimido[5,4-d][2]benzazepin-2-amine], the IC50 was no more than 100 nM.

As for `CN(C)C1CN(C(=N)NC(=O)c2ccc(Nc3ncc4c(n3)-c3ccc(Cl)cc3C(c3c(F)cccc3F)=NC4)cc2)C1` [Compound I-259, 4-{[9-chloro-7-(2,6-difluorophenyl)-5H-pyrimido[5,4-d][2]benzazepin-2-yl]amino}-N-[[3-(dimethylamino)azetidin-1-yl](imino)methyl]benzamide], the IC50 is no more than 100 nM.

As for `COc1cccc(F)c1C1=NCc2cnc(Nc3cccc(C(=O)N4CC(N(C)C)C4)c3)nc2-c2ccc(Cl)cc21` [Compound I-227, 9-chloro-N-(3-{[3-(dimethylamino)azetidin-1-yl]carbonyl}phenyl)-7-(2-fluoro-6-methoxyphenyl)-5H-pyrimido[5,4-d][2]benzazepin-2-amine], the IC50 is no more than 100 nM.

Take `CC1CN(C(=O)c2csc(Nc3ncc4c(n3)-c3ccc(Cl)cc3C(c3c(F)cccc3F)=NC4)n2)CC(C)N1` (centres unmarked) [Compound I-362, 9-chloro-7-(2,6-difluorophenyl)-N-{4-[(3,5-dimethylpiperazin-1-yl)carbonyl]-1,3-thiazol-2-yl}-5H-pyrimido[5,4-d][2]benzazepin-2-amine]: the IC50 was no more than 100 nM.

For the compound `NC1CN(C(=O)c2ccc(Nc3ncc4c(n3)-c3ccc(Cl)cc3C(c3ccccc3C(F)(F)F)=NC4)cc2)C1` [Compound I-296, N-{4-[(3-aminoazetidin-1-yl)carbonyl]phenyl}-9-chloro-7-[2-(trifluoromethyl)phenyl]-5H-pyrimido[5,4-d][2]benzazepin-2-amine], the IC50 is no more than 100 nM.

As to `CN1CCN(CCCNC(=O)c2ccc(Nc3ncc4c(n3)-c3ccc(Cl)cc3C(c3ccccc3Cl)=NC4)cc2)CC1` [Compound I-20, 4-[9-Chloro-7-(2-chloro-phenyl)-5H-benzo[c]pyrimido[4,5-e]azepin-2-ylamino]-N-[3-(4-methyl-piperazin-1-yl)-propyl]-benzamide], the IC50 was no more than 100 nM.

In the case of `NC1CCN(C(=O)c2ccc(Nc3ncc4c(n3)-c3ccc(Cl)cc3C(c3ccccc3C(F)(F)F)=NC4)cc2)CC1` [Compound I-287, N-{4[(4-aminopiperidin-1-yl)carbonyl]phenyl}-9-chloro-7-[2-(trifluoromethyl)phenyl]-5H-pyrimido[5,4-d][2]benzazepin-2-amine], the IC50 was no more than 100 nM.

As for `COc1cccc(F)c1C1=NCc2cnc(Nc3ccc(C(=O)N4CCC(N)C4)cc3)nc2-c2ccc(Cl)cc21` (centres unmarked) [Compound I-240], the IC50 was no more than 100 nM.

Turning to `O=S(=O)(O)c1ccc(Nc2ncc3c(n2)-c2ccc(Cl)cc2C(c2ccccc2F)=NC3)cc1` [Compound I-67, 4-[9-Chloro-7-(2-fluoro-phenyl)-5H-benzo[c]pyrimido[4,5-e]azepin-2-ylamino]-benzenesulfonic acid], the 50% inhibitory concentration (IC50) is no more than 100 nM.

In the case of `CN1CCN(C(=O)c2ccc(Nc3ncc4c(n3)-c3ccc(Cl)cc3C(c3c(F)cccc3F)=NC4)cc2)CC1` [Compound I-184, {4-[9-Chloro-7-(2,6-difluoro-phenyl)-5H-benzo[c]pyrimido[4,5-e]azepin-2-ylamino]-phenyl}-(4-methyl-piperazin-1-yl)-methanone], the IC50 is no more than 100 nM.

`CN1CCN(C(=O)Cc2ccc(Nc3ncc4c(n3)-c3ccc(Cl)cc3C(c3ccccc3F)=NC4)cc2)CC1` [Compound I-145, 2-{4-[9-Chloro-7-(2-fluoro-phenyl)-5H-benzo[c]pyrimido[4,5-e]azepin-2-ylamino]-phenyl}-1-(4-methyl-piperazin-1-yl)-ethanone]: the half-maximal inhibitory concentration (IC50) is no more than 100 nM.

With `CN(CCCN)C(=O)c1ccc(Nc2ncc3c(n2)-c2ccc(Cl)cc2C(c2ccccc2F)=NC3)cc1` [Compound I-117, N-(3-Amino-propyl)-4-[9-chloro-7-(2-fluoro-phenyl)-5H-benzo[c]pyrimido[4,5-e]azepin-2-ylamino]-N-methyl-benzamide], the IC50 was no more than 100 nM.

On to `CN(C)C1CCN(C(=N)c2ccc(Nc3ncc4c(n3)-c3ccc(Cl)cc3C(c3c(F)cccc3F)=NC4)cc2)C1` (centres unmarked) [Compound I-250, 9-chloro-7-(2,6-difluorophenyl)-N-{4-[[3-(dimethylamino)pyrrolidin-1-yl](imino)methyl]phenyl}-5H-pyrimido[5,4-d][2]benzazepin-2-amine], for which the 50% inhibitory concentration (IC50) is no more than 100 nM.

With `Cc1ccc2c(c1)C(c1ccccc1F)=NCc1cnc(Nc3ccc(C(=O)NCCN4CCOCC4)cc3)nc1-2` [Compound I-148, 4-[7-(2-Fluoro-phenyl)-9-methyl-5H-benzo[c]pyrimido[4,5-e]azepin-2-ylamino]-N-(2-morpholin-4-yl-ethyl)-benzamide], the 50% inhibitory concentration (IC50) is no more than 100 nM.

In the case of `Cc1ccc2c(c1)C(c1ccccc1F)=NCc1cnc(Nc3ccc(C(=O)NCCCN4CCN(C)CC4)cc3)nc1-2` [Compound I-24, 4-[7-(2-Fluoro-phenyl)-9-methyl-5H-benzo[c]pyrimido[4,5-e]azepin-2-ylamino]-N-[3-(4-methyl-piperazin-1-yl)-propyl]-benzamide], the IC50 is no more than 100 nM.

In the case of `NCC#Cc1ccc2c(c1)C(c1c(F)cccc1F)=NCc1cnc(Nc3ccc(C(=O)O)cc3)nc1-2` [Compound I-272, 4-{[9-(3-aminoprop-1-yn-1-yl)-7-(2,6-difluorophenyl)-5H-pyrimido[5,4-d][2]benzazepin-2-yl]amino}benzoic acid], the half-inhibitory concentration (IC50) was no more than 100 nM.

With `CNC1CCN(C(=O)c2ccc(Nc3ncc4c(n3)-c3ccc(Cl)cc3C(c3c(F)cccc3OC)=NC4)cc2)CC1` [Compound I-242, 9-chloro-7-(2-fluoro-6-methoxyphenyl)-N-(4-{[4-(methylamino)piperidin-1-yl]carbonyl}phenyl)-5H-pyrimido[5,4-d][2]benzazepin-2-amine], the IC50 was no more than 100 nM.

Regarding `CC1CN(C(=O)c2ccc(Nc3ncc4c(n3)-c3ccc(Cl)cc3C(c3c(F)cccc3F)=NC4)cc2Cl)CCN1` (centres unmarked) [Compound I-216, 9-chloro-N-{3-chloro-4-[(3-methylpiperazin-1-yl)carbonyl]phenyl}-7-(2,6-difluorophenyl)-5H-pyrimido[5,4-d][2]benzazepin-2-amine], the IC50 was no more than 100 nM.

As for `O=C(O)c1ccc(Nc2ncc3c(n2)-c2ccc(F)cc2C(c2ccccc2F)=NC3)cc1` [Compound I-57, 4-[9-Fluoro-7-(2-fluoro-phenyl)-5H-benzo[c]pyrimido[4,5-e]azepin-2-ylamino]-benzoic acid], the half-maximal inhibitory concentration (IC50) was no more than 100 nM.

Regarding `CN1CCCC(CN2CCN(C(=O)c3ccc(Nc4ncc5c(n4)-c4ccc(Cl)cc4C(c4ccccc4F)=NC5)cc3)CC2)C1` (centres unmarked) [Compound I-211, 9-chloro-7-(2-fluorophenyl)-N-[4-({4-[(1-methylpiperidin-3-yl)methyl]piperazin-1-yl}carbonyl)phenyl]-5H-pyrimido[5,4-d][2]benzazepin-2-amine], the IC50 was no more than 100 nM.

As for `O=C(c1ccc(Nc2ncc3c(n2)-c2ccc(Cl)cc2C(c2ccccc2F)=NC3)cc1)N1CCN(CCN2CCOCC2)CC1` [Compound I-189, {4-[9-Chloro-7-(2-fluoro-phenyl)-5H-benzo[c]pyrimido[4,5-e]azepin-2-ylamino]-phenyl}-[4-(2-morpholin-4-yl-ethyl)-piperazin-1-yl]-methanone], the IC50 is no more than 100 nM.

As to `NC1CN(C(=O)c2ccc(Nc3ncc4c(n3)-c3ccc(Cl)cc3C(c3ccccc3F)=NC4)cc2)C1` [Compound I-192, (3-Amino-azetidin-1-yl)-{4-[9-chloro-7-(2-fluoro-phenyl)-5H-benzo[c]pyrimido[4,5-e]azepin-2-ylamino]-phenyl}-methanone], the half-inhibitory concentration (IC50) was no more than 100 nM.

Consider `CNC1CCN(C(=O)c2csc(Nc3ncc4c(n3)-c3ccc(Cl)cc3C(c3c(F)cccc3F)=NC4)n2)C1` (centres unmarked) [Compound I-367, 9-chloro-7-(2,6-difluorophenyl)-N-(4-{[3-(methylamino)pyrrolidin-1-yl]carbonyl}-1,3-thiazol-2-yl)-5H-pyrimido[5,4-d][2]benzazepin-2-amine], for which the half-maximal inhibitory concentration (IC50) was no more than 100 nM.

Consider `CC(C)(N)C(=O)Nc1ccc(Nc2ncc3c(n2)-c2ccc(Cl)cc2C(c2c(F)cccc2F)=NC3)cc1` [Compound I-308, 2-amino-N-(4-{[9-chloro-7-(2,6-difluorophenyl)-5H-pyrimido[5,4-d][2]benzazepin-2-yl]amino}phenyl)-2-methylpropanamide], for which the concentration for half-maximal inhibition (IC50) is no more than 100 nM.
